Assay results from ChEMBL document CHEMBL1201862, “PubChem BioAssay data set” (2004).
Active and inactive are the calls of the source.

Experiments:
[1] = target: Sphingosine 1-phosphate receptor 4 (Homo sapiens, UniProt O95977); assay: Late-stage fluorescence-based dose-response cell-based counterscreen assay to identify agonists of the Sphingosine 1-Phosphate Receptor 3 (S1P3): Sphingosine 1-Phosphate Receptor 4 (S1P4) agonist assay.; type: functional
[2] = target: Sphingosine 1-phosphate receptor 2 (Homo sapiens, UniProt O95136); assay: Late-stage fluorescence-based dose-response cell-based counterscreen assay to identify agonists of the Sphingosine 1-Phosphate Receptor 3 (S1P3): Sphingosine 1-Phosphate Receptor 2 (S1P2) agonist assay.; type: functional
[3] = target: Rho-associated protein kinase 1 (Homo sapiens, UniProt Q13464); type: functional;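 further: measured within a broad kinome-wide panel profiling many kinases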
Focal adhesion kinase 1 = Focal adhesion kinase 1 (Homo sapiens, UniProt Q05397); type: functional;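 further: measured as one member of a kinome panel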
[4] = target: Mitogen-activated protein kinase kinase kinase kinase 2 (Homo sapiens, UniProt Q12851); type: functional;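 further: measured as one member of a kinome-wide kinase panel, with MAP4K2 as the panel entry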
Mitogen-activated protein kinase kinase kinase kinase 2, sequence (Q12851 whole entry): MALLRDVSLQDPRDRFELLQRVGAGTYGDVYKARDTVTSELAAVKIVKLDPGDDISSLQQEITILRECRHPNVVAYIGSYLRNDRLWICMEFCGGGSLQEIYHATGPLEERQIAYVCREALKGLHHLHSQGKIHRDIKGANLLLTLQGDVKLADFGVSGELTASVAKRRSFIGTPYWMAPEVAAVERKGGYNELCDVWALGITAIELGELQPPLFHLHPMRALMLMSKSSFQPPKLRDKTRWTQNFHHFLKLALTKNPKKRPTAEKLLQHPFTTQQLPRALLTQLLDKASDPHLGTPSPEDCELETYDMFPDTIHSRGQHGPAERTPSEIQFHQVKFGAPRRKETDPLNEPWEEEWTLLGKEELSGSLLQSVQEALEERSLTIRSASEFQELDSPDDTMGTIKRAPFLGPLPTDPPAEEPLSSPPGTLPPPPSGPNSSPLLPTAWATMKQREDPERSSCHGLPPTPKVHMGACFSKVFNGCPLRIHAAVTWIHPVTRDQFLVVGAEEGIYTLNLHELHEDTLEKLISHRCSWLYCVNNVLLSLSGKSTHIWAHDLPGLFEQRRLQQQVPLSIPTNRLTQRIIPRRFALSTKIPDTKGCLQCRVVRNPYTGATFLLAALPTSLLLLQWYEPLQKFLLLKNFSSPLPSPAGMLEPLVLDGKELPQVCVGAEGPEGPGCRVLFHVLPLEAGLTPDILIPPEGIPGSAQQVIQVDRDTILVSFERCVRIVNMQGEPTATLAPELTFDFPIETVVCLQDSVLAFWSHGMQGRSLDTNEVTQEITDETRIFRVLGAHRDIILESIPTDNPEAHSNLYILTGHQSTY

[5] = target: Cyclin-dependent kinase 5 (Homo sapiens, UniProt Q00535); type: functional;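 further: CDK5 measured as one member of a kinase profiling panel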
[6] = target: Casein kinase I isoform alpha (Homo sapiens, UniProt P48729); type: functional
[7] = target: Macrophage-stimulating protein receptor (Homo sapiens, UniProt Q04912); assay: Navigating the Kinome. Panel member name: MST1R; type: functional
[8] = target: Dual specificity tyrosine-phosphorylation-regulated kinase 1B (Homo sapiens, UniProt Q9Y463); assay: Navigating the Kinome. Panel member name: DYRK1B; type: functional
[9] = target: Leukocyte tyrosine kinase receptor (Homo sapiens, UniProt P29376); assay: Navigating the Kinome. Panel member name: LTK; type: functional
[10] = target: 5'-AMP-activated protein kinase catalytic subunit alpha-1 (Homo sapiens, UniProt Q13131); type: functional
5'-AMP-activated protein kinase catalytic subunit alpha-1, sequence (Q13131 whole entry): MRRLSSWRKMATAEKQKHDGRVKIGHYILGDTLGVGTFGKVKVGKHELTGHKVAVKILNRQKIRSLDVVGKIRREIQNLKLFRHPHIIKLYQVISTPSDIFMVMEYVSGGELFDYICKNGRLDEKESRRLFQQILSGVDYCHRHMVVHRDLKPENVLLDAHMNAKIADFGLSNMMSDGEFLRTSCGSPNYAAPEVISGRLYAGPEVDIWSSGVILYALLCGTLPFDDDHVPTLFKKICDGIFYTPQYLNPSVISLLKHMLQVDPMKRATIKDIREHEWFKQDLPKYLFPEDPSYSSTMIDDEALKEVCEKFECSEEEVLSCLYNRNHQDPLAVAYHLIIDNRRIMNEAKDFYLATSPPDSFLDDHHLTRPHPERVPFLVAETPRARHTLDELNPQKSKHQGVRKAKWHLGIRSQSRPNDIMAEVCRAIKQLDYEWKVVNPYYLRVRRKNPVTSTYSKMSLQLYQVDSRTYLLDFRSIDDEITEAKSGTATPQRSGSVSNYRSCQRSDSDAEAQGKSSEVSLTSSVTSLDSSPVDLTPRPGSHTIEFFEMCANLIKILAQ

[11] = target: Fibroblast growth factor receptor 1 (Homo sapiens, UniProt P11362); type: functional
Fibroblast growth factor receptor 1, sequence (P11362 whole entry): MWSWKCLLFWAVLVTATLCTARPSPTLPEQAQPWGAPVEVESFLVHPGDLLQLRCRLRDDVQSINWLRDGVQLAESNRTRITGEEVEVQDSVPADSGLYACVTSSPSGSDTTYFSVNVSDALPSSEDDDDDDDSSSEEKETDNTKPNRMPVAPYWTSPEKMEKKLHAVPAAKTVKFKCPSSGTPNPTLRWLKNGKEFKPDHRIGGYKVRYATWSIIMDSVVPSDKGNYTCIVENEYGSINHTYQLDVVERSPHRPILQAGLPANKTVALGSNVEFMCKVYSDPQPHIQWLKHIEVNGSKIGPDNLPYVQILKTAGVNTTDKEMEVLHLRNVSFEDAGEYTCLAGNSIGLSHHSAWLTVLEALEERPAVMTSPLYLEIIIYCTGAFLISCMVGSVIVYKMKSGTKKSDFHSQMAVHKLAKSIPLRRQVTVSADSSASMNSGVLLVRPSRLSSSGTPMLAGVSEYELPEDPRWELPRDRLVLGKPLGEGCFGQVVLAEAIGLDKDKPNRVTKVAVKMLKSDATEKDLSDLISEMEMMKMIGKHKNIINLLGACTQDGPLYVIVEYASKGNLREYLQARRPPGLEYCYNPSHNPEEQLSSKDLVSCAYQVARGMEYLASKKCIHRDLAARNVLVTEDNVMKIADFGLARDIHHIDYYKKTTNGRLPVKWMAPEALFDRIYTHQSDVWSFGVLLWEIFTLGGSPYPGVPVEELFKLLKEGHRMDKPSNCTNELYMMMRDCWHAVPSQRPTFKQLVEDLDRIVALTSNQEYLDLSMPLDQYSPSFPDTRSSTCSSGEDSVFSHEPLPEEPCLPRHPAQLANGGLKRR

[12] = target: ALK tyrosine kinase receptor (Homo sapiens, UniProt Q9UM73); type: functional;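 further: ALK tested as one member of a kinase panel screen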
[13] = target: Macrophage colony-stimulating factor 1 receptor (Homo sapiens, UniProt P07333); type: functional;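 further: value comes from the Navigating the Kinome screening panel, CSF1R member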
[14] = target: cAMP-dependent protein kinase catalytic subunit alpha (Homo sapiens, UniProt P17612); type: functional
[15] = target: Ribosomal protein S6 kinase alpha-3 (Homo sapiens, UniProt P51812); type: functional;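 further: measured within a kinome-wide profiling panel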
[16] = target: Cyclin-dependent kinase 8 (Homo sapiens, UniProt P49336); assay: Navigating the Kinome. Panel member name: CDK8; type: functional
[17] = target: Death-associated protein kinase 3 (Homo sapiens, UniProt O43293); type: functional;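 further: measured as one member of a kinome-wide profiling panel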
[18] = target: Mitogen-activated protein kinase 8 (Homo sapiens, UniProt P45983); type: functional;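 further: value comes from one member of a kinome-wide kinase profiling panel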
[19] = target: Dual specificity protein kinase CLK4 (Homo sapiens, UniProt Q9HAZ1); type: functional
Dual specificity protein kinase CLK4, sequence (Q9HAZ1 whole entry): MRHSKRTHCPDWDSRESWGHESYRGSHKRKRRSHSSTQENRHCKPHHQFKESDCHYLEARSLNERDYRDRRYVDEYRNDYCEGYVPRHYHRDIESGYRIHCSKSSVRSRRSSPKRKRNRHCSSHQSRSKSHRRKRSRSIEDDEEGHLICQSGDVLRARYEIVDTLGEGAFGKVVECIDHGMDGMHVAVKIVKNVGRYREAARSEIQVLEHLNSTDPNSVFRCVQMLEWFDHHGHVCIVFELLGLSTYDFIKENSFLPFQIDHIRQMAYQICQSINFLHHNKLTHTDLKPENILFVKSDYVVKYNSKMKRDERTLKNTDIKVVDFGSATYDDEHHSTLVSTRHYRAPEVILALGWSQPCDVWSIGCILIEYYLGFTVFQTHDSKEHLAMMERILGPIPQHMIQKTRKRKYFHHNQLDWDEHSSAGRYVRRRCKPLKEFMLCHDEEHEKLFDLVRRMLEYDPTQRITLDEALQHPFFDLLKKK

[20] = target: Leucine-rich repeat serine/threonine-protein kinase 2 (Homo sapiens, UniProt Q5S007); type: functional;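 further: value from a broad kinome-wide panel profiling study in which LRRK2 was one of the kinases tested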
[21] = target: Tyrosine-protein kinase receptor TYRO3 (Homo sapiens, UniProt Q06418); type: functional;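 further: TYRO3 value obtained as one member of a kinome-wide profiling panel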
[22] = target: Dual specificity mitogen-activated protein kinase kinase 2 (Homo sapiens, UniProt P36507); assay: Navigating the Kinome. Panel member name: MAP2K2; type: functional
Dual specificity mitogen-activated protein kinase kinase 2, sequence (P36507 whole entry): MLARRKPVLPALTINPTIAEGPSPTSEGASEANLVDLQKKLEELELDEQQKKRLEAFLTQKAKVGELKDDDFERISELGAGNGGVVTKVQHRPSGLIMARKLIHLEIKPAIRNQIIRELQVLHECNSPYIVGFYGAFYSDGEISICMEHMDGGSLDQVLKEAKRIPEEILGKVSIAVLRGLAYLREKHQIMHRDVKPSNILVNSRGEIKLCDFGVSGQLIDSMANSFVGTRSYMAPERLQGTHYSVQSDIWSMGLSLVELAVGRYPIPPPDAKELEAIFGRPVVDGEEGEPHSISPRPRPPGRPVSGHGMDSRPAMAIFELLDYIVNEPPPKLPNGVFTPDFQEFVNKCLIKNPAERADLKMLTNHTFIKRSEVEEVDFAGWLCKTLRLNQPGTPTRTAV

Aurora kinase A = Aurora kinase A (Homo sapiens, UniProt O14965); type: functional;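 further: value from the Navigating the Kinome kinase panel profiling, panel entry STK6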
[23] = target: Protein kinase C theta type (Homo sapiens, UniProt Q04759); assay: Navigating the Kinome. Panel member name: PRKCQ; type: functional
[24] = target: Glycogen synthase kinase-3 alpha (Homo sapiens, UniProt P49840); type: functional;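 further: GSK3A result taken from a broad kinome-wide kinase panel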
[25] = target: Platelet-derived growth factor receptor beta (Homo sapiens, UniProt P09619); type: functional;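 further: value comes from a kinome panel, with PDGFRB tested as one panel member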
[26] = target: Tyrosine-protein kinase BTK (Homo sapiens, UniProt Q06187); type: functional
[27] = target: Tyrosine-protein kinase JAK3 (Homo sapiens, UniProt P52333); type: functional
Tyrosine-protein kinase JAK3, sequence (P52333 whole entry): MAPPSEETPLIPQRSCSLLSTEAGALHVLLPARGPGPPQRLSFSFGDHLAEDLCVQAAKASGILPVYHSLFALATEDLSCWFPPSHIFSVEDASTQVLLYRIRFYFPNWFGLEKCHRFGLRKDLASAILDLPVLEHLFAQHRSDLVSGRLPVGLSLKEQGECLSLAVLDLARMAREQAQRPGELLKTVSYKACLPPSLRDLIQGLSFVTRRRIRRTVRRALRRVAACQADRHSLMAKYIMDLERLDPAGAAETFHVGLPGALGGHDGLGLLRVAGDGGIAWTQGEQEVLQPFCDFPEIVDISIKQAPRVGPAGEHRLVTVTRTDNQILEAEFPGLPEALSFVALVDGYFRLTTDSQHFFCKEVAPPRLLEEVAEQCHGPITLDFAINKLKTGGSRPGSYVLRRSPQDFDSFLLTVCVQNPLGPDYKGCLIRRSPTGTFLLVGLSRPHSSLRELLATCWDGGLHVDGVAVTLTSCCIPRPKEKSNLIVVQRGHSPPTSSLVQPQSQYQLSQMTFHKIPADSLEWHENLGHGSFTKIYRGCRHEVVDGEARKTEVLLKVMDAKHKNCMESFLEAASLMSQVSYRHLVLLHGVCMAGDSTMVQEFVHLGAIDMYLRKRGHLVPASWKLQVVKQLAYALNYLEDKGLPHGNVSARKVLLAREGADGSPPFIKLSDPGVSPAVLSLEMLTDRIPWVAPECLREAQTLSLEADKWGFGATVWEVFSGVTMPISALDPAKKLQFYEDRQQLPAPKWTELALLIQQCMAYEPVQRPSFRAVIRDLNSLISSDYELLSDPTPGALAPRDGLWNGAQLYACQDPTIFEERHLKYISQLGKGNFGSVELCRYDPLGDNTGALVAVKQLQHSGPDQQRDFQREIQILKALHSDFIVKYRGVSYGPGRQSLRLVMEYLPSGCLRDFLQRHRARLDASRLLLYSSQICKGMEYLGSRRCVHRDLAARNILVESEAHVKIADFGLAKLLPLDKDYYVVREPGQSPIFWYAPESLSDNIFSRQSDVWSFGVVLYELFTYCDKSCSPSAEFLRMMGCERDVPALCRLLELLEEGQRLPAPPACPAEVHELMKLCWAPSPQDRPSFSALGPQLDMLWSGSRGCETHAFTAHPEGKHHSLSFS

[28] = target: Dual specificity mitogen-activated protein kinase kinase 1 (Homo sapiens, UniProt Q02750); assay: Navigating the Kinome. Panel member name: MAP2K1; type: functional
[29] = target: Mitogen-activated protein kinase kinase kinase kinase 4 (Homo sapiens, UniProt O95819); type: functional
[30] = target: Dual specificity tyrosine-phosphorylation-regulated kinase 1A (Homo sapiens, UniProt Q13627); type: functional;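 further: measured against DYRK1A as one member of a broad kinome profiling panel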
[31] = target: Tyrosine-protein kinase JAK2 (Homo sapiens, UniProt O60674); type: functional;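 further: JAK2 tested as one member of a kinase panel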
[32] = target: Serine/threonine-protein kinase D3 (Homo sapiens, UniProt O94806); type: functional;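 further: determined within a kinase panel screen, with PRKCN as the panel member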
[33] = target: Mitogen-activated protein kinase 9 (Homo sapiens, UniProt P45984); type: functional;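 further: value from a kinome panel profiling assay, MAPK9 panel entry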
Activated CDC42 kinase 1 = Activated CDC42 kinase 1 (Homo sapiens, UniProt Q07912); assay: Navigating the Kinome. Panel member name: ACK1; type: functional
[34] = target: Dual specificity protein kinase CLK2 (Homo sapiens, UniProt P49760); type: functional
Dual specificity protein kinase CLK2, sequence (P49760 whole entry): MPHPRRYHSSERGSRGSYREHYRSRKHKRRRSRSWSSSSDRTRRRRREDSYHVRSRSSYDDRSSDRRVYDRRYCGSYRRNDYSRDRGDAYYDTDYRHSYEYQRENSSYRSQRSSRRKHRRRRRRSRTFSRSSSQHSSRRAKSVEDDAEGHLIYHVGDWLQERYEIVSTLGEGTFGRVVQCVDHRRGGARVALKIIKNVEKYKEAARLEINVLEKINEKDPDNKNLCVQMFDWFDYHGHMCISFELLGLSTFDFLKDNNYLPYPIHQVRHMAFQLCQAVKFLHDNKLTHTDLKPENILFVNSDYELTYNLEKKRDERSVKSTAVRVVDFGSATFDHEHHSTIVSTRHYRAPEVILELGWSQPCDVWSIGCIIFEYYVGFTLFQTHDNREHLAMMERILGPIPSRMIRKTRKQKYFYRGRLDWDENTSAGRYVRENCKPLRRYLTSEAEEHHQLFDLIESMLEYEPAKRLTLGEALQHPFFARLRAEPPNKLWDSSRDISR

[35] = target: Vascular endothelial growth factor receptor 1 (Homo sapiens, UniProt P17948); type: functional;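 further: measured within a kinome-wide profiling panel, FLT1 as the panel member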
Activin receptor type-1 = Activin receptor type-1 (Homo sapiens, UniProt Q04771); assay: Navigating the Kinome. Panel member name: ACVR1; type: functional
Aurora kinase B = Aurora kinase B (Homo sapiens, UniProt Q96GD4); type: functional
[36] = target: Inhibitor of nuclear factor kappa-B kinase subunit epsilon (Homo sapiens, UniProt Q14164); assay: Navigating the Kinome. Panel member name: IKBKE; type: functional
[37] = target: Tyrosine-protein kinase ABL1 (Homo sapiens, UniProt P00519); type: functional
[38] = target: Glycogen synthase kinase-3 beta (Homo sapiens, UniProt P49841); type: functional;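 further: value comes from a broad kinome profiling panel, with GSK3B as the panel member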
[39] = target: Cyclin-dependent kinase 9 (Homo sapiens, UniProt P50750); type: functional;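 further: value from the CDK9 entry of a kinome-spanning kinase panel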
[40] = target: Serine/threonine-protein kinase PAK 4 (Homo sapiens, UniProt O96013); type: functional;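 further: value obtained within a kinome profiling panel in which PAK4 was one of the panel members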
[41] = target: Cyclin-dependent kinase 7 (Homo sapiens, UniProt P50613); type: functional;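 further: value comes from a kinome-wide kinase profiling panel in which CDK7 is one member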
Cyclin-dependent kinase 7, sequence (P50613 whole entry): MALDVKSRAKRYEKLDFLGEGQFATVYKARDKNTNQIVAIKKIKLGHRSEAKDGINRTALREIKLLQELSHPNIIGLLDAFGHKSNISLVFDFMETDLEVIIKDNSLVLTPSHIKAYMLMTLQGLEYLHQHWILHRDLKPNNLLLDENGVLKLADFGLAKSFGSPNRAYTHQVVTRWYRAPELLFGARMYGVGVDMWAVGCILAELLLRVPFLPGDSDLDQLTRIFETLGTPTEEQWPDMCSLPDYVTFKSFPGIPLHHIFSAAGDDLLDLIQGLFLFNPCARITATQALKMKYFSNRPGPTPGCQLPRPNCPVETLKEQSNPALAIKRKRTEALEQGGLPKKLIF

[42] = target: Vascular endothelial growth factor receptor 2 (Homo sapiens, UniProt P35968); type: functional
[43] = target: Serine/threonine-protein kinase TBK1 (Homo sapiens, UniProt Q9UHD2); assay: Navigating the Kinome. Panel member name: TBK1; type: functional
cells [44] = type: functional, cell-based
cells [45] = type: functional, cell-based; remark: listed apart in the source
[46] = target: T1, Trace amine-associated receptor 1 (Homo sapiens, UniProt Q96RJ0); assay: Fluorescence-based cell-based high throughput dose response assay to identify agonists of the human trace amine associated receptor 1 (TAAR1).; type: functional
T1 sequence (Q96RJ0 whole entry): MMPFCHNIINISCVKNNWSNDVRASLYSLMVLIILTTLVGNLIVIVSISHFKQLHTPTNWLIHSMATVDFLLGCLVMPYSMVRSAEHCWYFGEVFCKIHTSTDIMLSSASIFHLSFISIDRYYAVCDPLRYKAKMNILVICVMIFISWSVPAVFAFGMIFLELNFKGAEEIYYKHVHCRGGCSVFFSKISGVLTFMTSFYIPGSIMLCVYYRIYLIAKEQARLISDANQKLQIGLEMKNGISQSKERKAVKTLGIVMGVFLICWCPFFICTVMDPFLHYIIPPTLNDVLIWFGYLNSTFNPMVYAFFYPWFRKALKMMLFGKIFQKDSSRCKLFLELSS

[47] = target: T2, High affinity choline transporter 1 (Homo sapiens, UniProt Q9GZV3); assay: human choline transporter potentiators, potency – cell-based, 10-point CRC, membrane potential dye, dose response (AID 602376); type: functional
T2 sequence (Q9GZV3 whole entry): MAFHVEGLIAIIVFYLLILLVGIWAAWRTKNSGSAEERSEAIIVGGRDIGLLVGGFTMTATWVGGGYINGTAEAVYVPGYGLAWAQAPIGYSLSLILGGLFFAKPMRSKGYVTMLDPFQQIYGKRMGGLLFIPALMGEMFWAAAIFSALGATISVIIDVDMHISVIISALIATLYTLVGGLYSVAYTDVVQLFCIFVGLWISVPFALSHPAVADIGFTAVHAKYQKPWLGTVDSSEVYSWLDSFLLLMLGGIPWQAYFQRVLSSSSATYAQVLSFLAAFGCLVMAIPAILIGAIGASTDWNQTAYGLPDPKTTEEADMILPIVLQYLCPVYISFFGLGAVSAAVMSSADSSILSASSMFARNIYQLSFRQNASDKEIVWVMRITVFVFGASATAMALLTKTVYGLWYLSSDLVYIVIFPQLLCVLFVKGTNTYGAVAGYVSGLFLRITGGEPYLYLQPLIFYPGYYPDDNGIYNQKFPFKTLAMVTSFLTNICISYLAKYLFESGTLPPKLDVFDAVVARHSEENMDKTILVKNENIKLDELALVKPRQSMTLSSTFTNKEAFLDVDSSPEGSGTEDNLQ

[48] = target: T1, Trace amine-associated receptor 1; assay: Counterscreen for agonists of the human trace amine associated receptor 1 (hTAAR1): Fluorescence-based cell-based high throughput dose response assay to identify hTAAR1 agonist that also desensitize TAAR1 receptor response.; type: functional

CCCc1cc(C(=O)N(C2CCCCC2)C2CCCC2)no1
EC50 [1]: > 50 µM (inactive) | EC50 [2]: > 50 µM (inactive)

Fc1cccc(CNc2ncnc3nc[nH]c23)c1
Ki [3]: 5.01 µM (active) | Ki (Focal adhesion kinase 1): 79.4 µM (active) | Ki [4]: 79.4 µM (active) | Ki [5]: 5.01 µM (active) | Ki [6]: 10 µM (active) | Ki [7]: 31.6 µM (active) | Ki [8]: 12.6 µM (active) | Ki [9]: 15.8 µM (active) | Ki [10]: 15.8 µM (active) | Ki [11]: 25.1 µM (active) | Ki [12]: 63.1 µM (active) | Ki [13]: 31.6 µM (active) | Ki [14]: 10 µM (active) | Ki [15]: 39.8 µM (active) | Ki [16]: 12.6 µM (active) | Ki [17]: 31.6 µM (active) | Ki [18]: 15.8 µM (active) | Ki [19]: 1.58 µM (active) | Ki [20]: 2 µM (active) | Ki [21]: 63.1 µM (active) | Ki [22]: 39.8 µM (active) | Ki (Aurora kinase A): 39.8 µM (active) | Ki [23]: 50.1 µM (active) | Ki [24]: 50.1 µM (active) | Ki [25]: 12.6 µM (active) | Ki [26]: 63.1 µM (active) | Ki [27]: 63.1 µM (active) | Ki [28]: 10 µM (active) | Ki [29]: 79.4 µM (active) | Ki [30]: 39.8 µM (active) | Ki [31]: 31.6 µM (active) | Ki [32]: 63.1 µM (active) | Ki [33]: 50.1 µM (active) | Ki (Activated CDC42 kinase 1): 25.1 µM (active) | Ki [34]: 25.1 µM (active) | Ki [35]: 79.4 µM (active) | Ki (Activin receptor type-1): 39.8 µM (active) | Ki (Aurora kinase B): 15.8 µM (active) | Ki [36]: 100 µM (active) | Ki [37]: 50.1 µM (active) | Ki [38]: 50.1 µM (active) | Ki [39]: > 63.1 µM (inactive) | Ki [40]: 20 µM (active) | Ki [41]: 31.6 µM (active) | Ki [42]: 25.1 µM (active) | Ki [43]: 63.1 µM (active)

CC(C)CC(C(=O)N1CCc2ccccc2C1)N1C(=O)c2ccccc2C1=O (stereo not drawn)
IC50 (cells [44]): > 29.9 µM (inactive) | EC50 (cells [45]): > 29.9 µM (inactive) | EC50 [46]: 2.96 µM (active) | EC50 [47]: 22.4 µM (active) | IC50 [48]: 5.55 µM (active)
